According to US20100113540A1, “Azole and Thiazole Derivatives and Their Use” (ARGENTA DISCOVERY LIMITED, priority 2005, published 2010):
Counter-ions that a name gives are not always drawn.

Experiments:
[1] = target: T1, M3 muscarinic receptor (Homo sapiens, UniProt P20309); assay: Muscarinic receptor radioligand binding assay ([3H]-NMS), M3; conditions: cell membranes expressing human M3 receptor
T1 construct: purchased
Procedure: (§1) The inhibitory effects of compounds of the present invention at the M3 muscarinic receptor and (in the case of Example 77) the β2 adrenergic receptor, were determined by the following binding assays:
Radioligand binding studies utilising [^3H]-N-methyl scopolamine ([^3H]-NMS) and commercially available cell membranes expressing the human muscarinic receptors (M2 and M3) were used to assess the affinity of muscarinic antagonists for M2 and M3 receptors. Membranes in TRIS buffer were incubated in 96-well plates with [^3H]-NMS and M3 antagonist at various concentrations for 3 hours. Membranes and bound radioligand were then harvested by filtration and allowed to dry overnight. Scintillation fluid was then added and the bound radioligand counted using a Can berra Packard Topcount scintillation counter

[2] = target: T2, human β2 adrenergic receptor (Homo sapiens, UniProt P07550); assay: β-Adrenergic receptor radioligand binding assay ([125I]-Iodocyanopindolol); conditions: cell membranes expressing human β2 adrenergic receptor
T2 construct: purchased
Procedure: as §1
Radioligand binding studies utilising [^125I]-Iodocyanopindolol and commercially available cell membranes expressing the human β2 adrenergic receptor were used to assess the affinity of antagonists for β2-adrenergic receptor. Membranes and SPA-beads were incubated with [^125I-Iodocyanopindolol and β2 antagonist at various concentrations for 3 hours at room temperature in TRIS buffer. The assay was performed in 96-well plates which were read using the Wallac Microbeta counter.

T1 sequence (P20309 whole entry): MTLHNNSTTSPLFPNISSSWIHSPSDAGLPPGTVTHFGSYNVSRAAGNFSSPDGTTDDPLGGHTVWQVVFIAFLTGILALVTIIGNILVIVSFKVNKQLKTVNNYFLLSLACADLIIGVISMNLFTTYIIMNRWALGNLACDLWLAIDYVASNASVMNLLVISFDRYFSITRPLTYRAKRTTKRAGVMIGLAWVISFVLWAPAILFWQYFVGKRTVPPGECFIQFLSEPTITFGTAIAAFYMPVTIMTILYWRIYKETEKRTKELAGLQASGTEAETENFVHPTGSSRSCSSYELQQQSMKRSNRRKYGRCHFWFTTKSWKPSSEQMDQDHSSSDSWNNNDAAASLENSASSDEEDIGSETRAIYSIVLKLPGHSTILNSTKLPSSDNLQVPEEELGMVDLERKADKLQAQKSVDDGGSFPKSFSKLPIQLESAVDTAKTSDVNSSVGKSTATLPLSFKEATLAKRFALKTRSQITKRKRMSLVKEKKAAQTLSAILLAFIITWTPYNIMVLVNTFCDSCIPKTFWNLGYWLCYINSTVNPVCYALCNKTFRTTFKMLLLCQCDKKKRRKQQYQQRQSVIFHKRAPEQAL
T2 sequence (P07550 whole entry): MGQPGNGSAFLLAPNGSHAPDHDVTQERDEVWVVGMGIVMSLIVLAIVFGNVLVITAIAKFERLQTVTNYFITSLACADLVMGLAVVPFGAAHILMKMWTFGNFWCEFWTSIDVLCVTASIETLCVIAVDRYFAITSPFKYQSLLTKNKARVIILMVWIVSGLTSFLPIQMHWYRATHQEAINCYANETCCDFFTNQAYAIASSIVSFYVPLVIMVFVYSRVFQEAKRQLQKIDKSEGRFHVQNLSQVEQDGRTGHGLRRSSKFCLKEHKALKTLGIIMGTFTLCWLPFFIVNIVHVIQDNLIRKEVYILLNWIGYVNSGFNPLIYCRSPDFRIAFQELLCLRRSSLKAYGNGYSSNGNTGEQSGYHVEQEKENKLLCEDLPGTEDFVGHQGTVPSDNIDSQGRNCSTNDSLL

Compound | Ki [1] | Ki [2]
C[N+](C)(CCOc1ccccc1)Cc1cnc([C@](O)(c2ccccc2)C2CCCCC2)o1 [Example 49, [2-((R)-cyclohexyl-hydroxy-phenyl-methyl)-oxazol-5-ylmethyl]-dimethyl-(2-phenoxy-ethyl)-ammonium formate] | < 1 nM | –
CN(Cc1ccc(CC[N+](C)(C)Cc2cnc([C@](O)(c3ccccc3)C3CCCCC3)o2)cc1)C(=O)OC(C)(C)C [Example 50, (2-{4-[(Tert-butoxycarbonyl-methyl-amino)-methyl]-phenyl}-ethyl)-[2-((R)-cyclohexyl-hydroxy-phenyl-methyl)-oxazol-5-ylmethyl]-dimethyl-ammonium methanesulfonate] | > 10 nM | –
C[N+](C)(CCCOc1ccc(C(N)=O)cc1)Cc1cnc([C@](O)(c2ccccc2)C2CCCCC2)o1 [Example 51, [3-(4-Carbamoyl-phenoxy)-propyl]-[2-((R)-cyclohexyl-hydroxy-phenyl-methyl)-oxazol-5-ylmethyl]-dimethyl-ammonium bromide] | 1 to 10 nM | –
C[N+](C)(CC(=O)Nc1ccon1)Cc1cnc([C@](O)(c2ccccc2)C2CCCCC2)o1 [Example 52, [2-((R)-Cyclohexyl-hydroxy-phenyl-methyl)-oxazol-5-ylmethyl]-(isoxazol-3-ylcarbamoylmethyl)-dimethyl-ammonium bromide] | 1 to 10 nM | –
COC(=O)c1ccc(OCCC[N+](C)(C)Cc2cnc([C@](O)(c3ccccc3)C3CCCCC3)o2)cc1 [Example 53, [2-((R)-Cyclohexyl-hydroxy-phenyl-methyl)-oxazol-5-ylmethyl]-[3-(4-methoxycarbonyl-phenoxy)-propyl]-dimethyl-ammonium bromide] | 1 to 10 nM | –
C[N+](C)(CCCOc1ccc(S(N)(=O)=O)cc1)Cc1cnc([C@](O)(c2ccccc2)C2CCCCC2)o1 [Example 54, [2-((R)-Cyclohexyl-hydroxy-phenyl-methyl)-oxazol-5-ylmethyl]-dimethyl-[3-(4-sulfamoyl-phenoxy)-propyl]-ammonium bromide] | 1 to 10 nM | –
Cc1ccc(OCCC[N+](C)(C)Cc2cnc([C@](O)(c3ccccc3)C3CCCCC3)o2)cc1 [Example 55, [2-((R)-Cyclohexyl-hydroxy-phenyl-methyl)-oxazol-5-ylmethyl]-dimethyl-(3-p-tolyloxy-propyl)-ammonium bromide] | < 1 nM | –
C[N+](C)(CCCOc1ccc(Cl)cc1)Cc1cnc([C@](O)(c2ccccc2)C2CCCCC2)o1 [Example 56, [3-(4-Chloro-phenoxy)-propyl]-[2-((R)-cyclohexyl-hydroxy-phenyl-methyl)-oxazol-5-ylmethyl]-dimethyl-ammonium bromide] | < 1 nM | –
C[N+](C)(CCCOc1ccc(Cl)c(Cl)c1)Cc1cnc([C@](O)(c2ccccc2)C2CCCCC2)o1 [Example 57, [2-((R)-Cyclohexyl-hydroxy-phenyl-methyl)-oxazol-5-ylmethyl]-[3-(3,4-dichloro-phenoxy)-propyl]-dimethyl-ammonium bromide] | < 1 nM | –
C[N+]1(Cc2cnc(C(O)(c3ccccc3)c3ccccc3)o2)CCC(Oc2ccccc2)CC1 (stereo not drawn) [Example 58, 1-[2-(Hydroxy-diphenyl-methyl)-oxazol-5-ylmethyl]-1-methyl-4-phenoxy-piperidinium bromide] | 1 to 10 nM | –
C[N+](C)(Cc1ccccc1)Cc1cnc([C@](O)(c2ccccc2)C2CCCC2)o1 [Example 59, Benzyl-[2-(cyclopentyl-hydroxy-phenyl-methyl)-oxazol-5-ylmethyl]-dimethyl-ammonium bromide] | 1 to 10 nM | –
CNCCCCCCCC[N+](C)(C)Cc1cnc([C@](O)(c2ccccc2)C2CCCCC2)o1 [Example 61, [2-((R)-cyclohexyl-hydroxy-phenyl-methyl)-oxazol-5-ylmethyl]-dimethyl-(8-methylamino-octyl)-ammonium methanesulfonate hydrochloride salt] | < 1 nM | –
CNCc1ccc(CC[N+](C)(C)Cc2cnc([C@](O)(c3ccccc3)C3CCCCC3)o2)cc1 [Example 62, [2-((R)-cyclohexyl-hydroxy-phenyl-methyl)-oxazol-5-ylmethyl]-dimethyl-[2-(4-methylaminomethyl-phenyl)-ethyl]-ammonium methanesulfonate hydrochloride] | < 1 nM | –
C[N+](C)(CCCOc1ccccc1)CCc1cnc(C(O)(c2ccccc2)C2CCCCC2)o1 (stereo not drawn) [Example 65, {2-[2-(Cyclohexyl-hydroxy-phenyl-methyl)-oxazol-5-yl]-ethyl}-dimethyl-(3-phenoxy-propyl)-ammonium bromide] | < 1 nM | –
CN(C)CCc1cnc(C(O)(c2ccccc2)c2ccccc2)o1 [Example 71, [5-(2-Dimethylamino-ethyl)-oxazol-2-yl]-diphenyl-methanol] | 1 to 10 nM | –
C[N+](C)(CCCOc1ccccc1)CCc1cnc(C(O)(c2ccccc2)c2ccccc2)o1 [Example 72, {2-[2-(Hydroxy-diphenyl-methyl)-oxazol-5-yl]-ethyl}-dimethyl-(3-phenoxy-propyl)-ammonium bromide] | < 1 nM | –
CN(C)Cc1cnc(C(c2ccccc2)c2ccccc2)o1 [Example 73, (2-Benzhydryl-oxazol-5-ylmethyl)-dimethyl-amine] | > 10 nM | –
C[N+](C)(CCCOc1ccccc1)Cc1cnc(C(c2ccccc2)c2ccccc2)o1 [Example 74, (2-Benzhydryl-oxazol-5-ylmeth-dimethyl-(3-phenoxy-propyl)-ammonium bromide] | > 10 nM | –
COC(c1ccccc1)(c1ccccc1)c1ncc(C[N+](C)(C)CCCOc2ccccc2)o1 [Example 76, [2-(Methoxy-diphenyl-methyl)-oxazol-5-ylmethyl]-dimethyl-(3-phenoxy-propyl)-ammonium bromide] | > 10 nM | –
CN(CCCCCCCCCNC[C@H](O)c1ccc(O)c2[nH]c(=O)ccc12)Cc1cnc(C(O)(c2ccccc2)C2CCCCC2)o1 (stereo partly drawn) [Example 77, 5-[(R)-2-(9-{[2-(Cyclohexyl-hydroxy-phenyl-methyl)-oxazol-5-ylmethyl]-methyl-amino}-nonylamino)-1-hydroxy-ethyl]-8-hydroxy-1H-quinolin-2-one] | > 10 nM | < 100 nM
C[N+](C)(CCCOc1ccccc1)Cc1cnc(C(O)(c2ccccc2)c2ccccc2)s1 [Example 79, [2-(Hydroxydiphenylmethyl)thiazol-5-ylmethyl]dimethyl-(3-phenoxypropyl)ammonium bromide] | < 1 nM | –
C[N+](C)(CCCOCc1ccccc1)Cc1cnc([C@](O)(c2ccccc2)C2CCCCC2)o1 [Example 80, (3-Benzyloxy-propyl)-[2-((R)-cyclohexyl-hydroxy-phenyl-methyl)-oxazol-5-ylmethyl]-dimethyl-ammonium bromide] | < 1 nM | –
C[N+](C)(CCOCc1ccc(Cl)cc1)Cc1cnc([C@](O)(c2ccccc2)C2CCCCC2)o1 [Example 81, [2-(4-Chloro-benzyloxy)-ethyl]-[2-((R)-cyclohexyl-hydroxy-phenyl-methyl)-oxazol-5-ylmethyl]-dimethyl-ammonium methanesulfonate] | < 1 nM | –
